We go through 19 compounds from patent US9115092B2, “Substituted quinazoline and pyrido-pyrimidine derivatives” (Asana Biosciences, LLC, priority 2010, dated 2015).

pIC50: −log10 of the molar value.

The target in assay [1] is T1, mTOR kinase (Homo sapiens, UniProt P42345).
T1 construct: purchased Millipore, USA
Put plainly: mTOR kinase TR-FRET assay. It counts as biochemical. Particulars: read-out: mTO R. The procedure:
Compound inhibition for mTOR kinase was determined in a homogeneous TR-FRET assay using the Lance® ULight-p70 S6K (Thr 389) peptide (obtained from Perkin-Elmer). The ULight™-labeled synthetic peptide contains the amino acid residues surrounding Thr389 of human p70 S6K. The ULight-p70 S6K peptide is phosphorylated at Thr389 by mTOR. Phosphorylation motif: LGFTYVAP as substrate.
The compound dilution was carried out in 100% DMSO followed by a buffer dilution. The reaction buffer was HEPES (50 mM pH 7.5), EGTA (1 mM), MnCl2 (3 mM). Test compounds at various concentrations were pre-incubated with mTOR (Millipore, USA; 5 ng) for 60 min, and then the Lance® ULight-p70 S6K (Thr 389) peptide (50 nM) was added along with ATP (20 μM). After incubating the reaction mixture for 60 min at room temperature, the kinase reaction was terminated by the addition of EDTA (10 mM) followed by the addition of detection mix, i.e., 1 nM Eu-labeled anti-phospho-substrate antibody (Perkin Elmer, USA). The fluorescence emission at […] was measured upon excitation at 340 nm. IC50 values were subsequently determined using a sigmoidal dose-response curve (variable slope) in GraphPad Prism® 5 software.
Compounds of formula (I) caused inhibition of mTOR kinase activity as determined by this assay.
In general terms: In TR-FRET formats the signal depends on donor and acceptor labels being close together.

In assay [2] the target is T2, PI3Kα (wild-type), P110/P85α (Homo sapiens, UniProt P42336).
T2 construct: made in house; host or cells: SF9 insect cells
In words: PI3 Kinase TR-FRET assay, PI3Kα (wild-type). It counts as biochemical. The procedure: The ability of compounds of the invention to inhibit PI3K activity was determined in a homogeneous TR-FRET assay using a PI3K assay kit (Millipore, USA; cat #33-016) according to manufacturer's instructions. PI3-Kinases (isoforms α, β, γ and δ) catalyze the phosphorylation of phosphatidylinositol, PIP2 to PIP3 in the presence of ATP and Mg^2+. The PIP3 product is detected by displacement of biotin-PIP3 from an energy transfer complex consisting of Europium labeled anti-GST monoclonal antibody, a GST-tagged PH domain, biotinylated PIP3 and Streptavidin-APC. Excitation of Europium in the complex results in an energy transfer to the APC and a fluorescence emission at 665 nm. The PIP3 product displaces biotin-PIP3 from the complex resulting in a loss of energy transfer and thus a decrease in signal.
To test for the ability of compounds to inhibit the activity of PI3Kα (wild-type), exemplary compounds of formula (I) were dissolved in DMSO and directly distributed into 384-well plates at a volume of 0.5 μL. 14.5 μL of P110/P85α/PIP2 mixture in buffer (obtained from the Millipore kit) containing MgCl2 (40 mM) and DTT (5 mM) was added to compound wells and incubated for 60 min at room temperature. P110/P85α was expressed in SF9 insect cells and purified nickel column extraction. Five ng of wild-type P110/P85α was used in the assay. The kinase reaction was started by the addition of ATP. The assay concentrations of both PIP2 and ATP were 10 μM. The reaction mixture was incubated for 30 min at room temperature and was terminated by the addition of stop mix and detection mix. Fluorescence was measured at 615 and 665 nm upon excitation at 340 nm in a Victor™ V5 fluorometer (Perkin Elmer, USA). The fluorescence emission ratio at 665 to 615 nm, proportional to the kinase activity, was plotted against the compound concentration to generate dose-response curves and IC50 values were determined using GraphPad Prism® 5 software.

T2 sequence (P42336 whole entry): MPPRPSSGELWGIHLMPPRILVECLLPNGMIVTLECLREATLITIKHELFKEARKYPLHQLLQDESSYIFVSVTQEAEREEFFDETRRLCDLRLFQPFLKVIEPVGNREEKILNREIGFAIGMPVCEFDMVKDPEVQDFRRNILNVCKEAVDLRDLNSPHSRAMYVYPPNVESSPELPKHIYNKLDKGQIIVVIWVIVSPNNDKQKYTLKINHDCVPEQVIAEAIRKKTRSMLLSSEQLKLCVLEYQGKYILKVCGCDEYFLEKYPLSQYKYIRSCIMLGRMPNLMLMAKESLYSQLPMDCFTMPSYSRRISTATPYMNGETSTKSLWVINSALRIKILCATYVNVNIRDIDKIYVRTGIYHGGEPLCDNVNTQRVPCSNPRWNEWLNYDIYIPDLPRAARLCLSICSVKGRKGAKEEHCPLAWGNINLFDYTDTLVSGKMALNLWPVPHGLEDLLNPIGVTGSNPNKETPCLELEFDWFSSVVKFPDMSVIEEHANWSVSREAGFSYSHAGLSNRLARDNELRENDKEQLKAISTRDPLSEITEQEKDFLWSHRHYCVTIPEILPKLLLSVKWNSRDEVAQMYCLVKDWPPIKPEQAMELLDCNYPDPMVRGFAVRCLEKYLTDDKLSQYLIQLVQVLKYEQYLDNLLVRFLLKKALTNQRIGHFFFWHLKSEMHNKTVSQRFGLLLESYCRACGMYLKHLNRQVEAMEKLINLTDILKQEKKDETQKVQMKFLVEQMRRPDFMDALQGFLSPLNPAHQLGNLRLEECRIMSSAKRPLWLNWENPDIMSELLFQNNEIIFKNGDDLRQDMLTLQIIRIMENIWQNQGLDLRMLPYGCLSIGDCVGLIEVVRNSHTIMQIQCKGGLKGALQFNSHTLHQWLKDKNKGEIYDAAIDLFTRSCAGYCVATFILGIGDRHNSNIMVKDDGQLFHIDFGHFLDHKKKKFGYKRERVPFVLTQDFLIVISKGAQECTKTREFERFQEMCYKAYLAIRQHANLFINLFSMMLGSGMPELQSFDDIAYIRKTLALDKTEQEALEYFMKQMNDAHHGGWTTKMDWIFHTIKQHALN
T2 sequence (P27986 whole entry partner): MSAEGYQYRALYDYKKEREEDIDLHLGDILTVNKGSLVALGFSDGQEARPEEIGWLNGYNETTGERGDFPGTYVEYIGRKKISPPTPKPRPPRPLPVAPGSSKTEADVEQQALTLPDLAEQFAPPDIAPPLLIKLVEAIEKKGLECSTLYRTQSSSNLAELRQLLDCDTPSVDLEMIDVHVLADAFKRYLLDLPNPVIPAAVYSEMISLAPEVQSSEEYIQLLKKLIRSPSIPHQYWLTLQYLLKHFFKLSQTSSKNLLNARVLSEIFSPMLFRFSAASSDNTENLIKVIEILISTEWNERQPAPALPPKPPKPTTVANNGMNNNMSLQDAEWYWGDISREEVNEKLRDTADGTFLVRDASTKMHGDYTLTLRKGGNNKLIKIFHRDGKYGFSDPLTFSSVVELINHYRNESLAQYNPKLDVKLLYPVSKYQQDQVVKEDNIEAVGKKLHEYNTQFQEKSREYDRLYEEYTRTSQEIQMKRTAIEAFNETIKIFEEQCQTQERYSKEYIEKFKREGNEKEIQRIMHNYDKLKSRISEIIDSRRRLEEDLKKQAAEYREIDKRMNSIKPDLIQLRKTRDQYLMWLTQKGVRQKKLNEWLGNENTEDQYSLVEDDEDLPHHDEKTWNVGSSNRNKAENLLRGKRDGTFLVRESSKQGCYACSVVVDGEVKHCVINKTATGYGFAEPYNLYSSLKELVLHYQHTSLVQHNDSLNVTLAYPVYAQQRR

`Cc1ccc(-c2ccc3c(N4CCOCC4)nc(-c4ccc(NC(=O)Nc5ccc(N6CCCC6=O)cc5)cc4)nc3c2)o1` [Example 18, 1-(4-(7-(5-methylfuran-2-yl)-4-morpholino-quinazolin-2-yl)phenyl)-3-(4-(2-oxopyrrolidin-1-yl)phenyl)urea]: the pIC50 was > 7.30 in assay [1] and 5.00 to 6.70 in assay [2].
For `CN(C)C(=O)c1ccc(NC(=O)Nc2ccc(-c3nc(N4CCOCC4)c4ccc(-c5cccc(F)c5)cc4n3)cc2)cc1` [Example 47, 4-(3-{4-[7-(3-fluoro-phenyl)-4-morpholin-4-yl-quinazolin-2-yl]-phenyl}-ureido)-N,N-dimethyl-benzamide], the pIC50 in assay [1] is 5.00 to 6.70; in assay [2] it was 6.70 to 7.30.
Turning to `COc1cccc(-c2ccc3c(N4CCOCC4)nc(-c4ccc(NC(=O)Nc5ccc(C(=O)N(C)C)cc5)cc4)nc3c2)c1` [Example 48, 4-(3-{4-[7-(3-methoxy-phenyl)-4-morpholin-4-yl-quinazolin-2-yl]-phenyl}-ureido)-N,N-dimethyl-benzamide], the pIC50 in assay [1] and in assay [2] was 6.70 to 7.30 throughout.
On to `CN(C)C(=O)c1ccc(NC(=O)Nc2ccc(-c3nc(N4CCOCC4)c4ccc(-c5cccc(N(C)C)c5)cc4n3)cc2)cc1` [Example 50, 4-(3-{4-[7-(3-dimethylamino-phenyl)-4-morpholin-4-yl-quinazolin-2-yl]-phenyl}-ureido)-N,N-dimethyl-benzamide], for which the pIC50 in assay [1] was 6.70 to 7.30; in assay [2] it was > 7.30.
As to `CNC(=O)c1ccc(NC(=O)Nc2ccc(-c3nc(N4CCOCC4)c4ccc(-c5ccc(C)o5)cc4n3)cc2)cc1` [Example 56, N-methyl-4-(3-{4-[7-(5-methyl-furan-2-yl)-4-morpholin-4-yl-quinazolin-2-yl]-phenyl}-ureido)-benzamide], the pIC50 in assay [1] was > 7.30; in assay [2], 6.70 to 7.30.
As for `Cc1ccc(-c2ccc3c(N4CCOCC4)nc(-c4ccc(NC(=O)Nc5ccc(C(=O)N(C)C)cc5)nc4)nc3c2)o1` [Example 57, N,N-dimethyl-4-(3-{5-[7-(5-methyl-furan-2-yl)-4-morpholin-4-yl-quinazolin-2-yl]-pyridin-2-yl}-ureido)-benzamide], the figures for the pIC50 in assay [1] and in assay [2] were 5.00 to 6.70 and > 7.30, respectively.
With `Cc1ccc(-c2ccc3c(N4CCOCC4)nc(-c4ccc(NC(=O)Nc5ccc(C(=O)N(C)C)cc5)cc4)nc3c2)s1` [Example 61, N,N-dimethyl-4-(3-{4-[7-(5-methyl-thiophen-2-yl)-4-morpholin-4-yl-quinazolin-2-yl]-phenyl}-ureido)-benzamide], the pIC50 in assay [1] is 5.00 to 6.70; in assay [2], 6.70 to 7.30.
On to `CN(C)C(=O)c1ccc(NC(=O)Nc2ccc(-c3nc(N4CCOCC4)c4ccc(-c5cc6ccccc6o5)cc4n3)cc2)cc1` [Example 64, 4-{3-[4-(7-benzofuran-2-yl-4-morpholin-4-yl-quinazolin-2-yl)-phenyl]-ureido}-N,N-dimethyl-benzamide], for which the pIC50 in assay [1] and in assay [2] was 5.00 to 6.70 throughout.
In the case of `Cc1ccc(-c2cccc3c(N4CCOCC4)nc(-c4ccc(NC(=O)Nc5ccc(C(=O)N(C)C)cc5)cc4)nc23)o1` [Example 71, N,N-dimethyl-4-(3-{4-[8-(5-methyl-furan-2-yl)-4-morpholin-4-yl-quinazolin-2-yl]-phenyl}-ureido)-benzamide], the pIC50 in assay [1] was > 7.30; in assay [2], 6.70 to 7.30.
For the compound `CN(C)C(=O)c1ccc(NC(=O)Nc2ccc(-c3nc(N4CCOCC4)c4ccc(-c5cnc(N)nc5)cc4n3)cc2)cc1` [Example 76, 4-(3-{4-[7-(2-amino-pyrimidin-5-yl)-4-morpholin-4-yl-quinazolin-2-yl]-phenyl}-ureido)-N,N-dimethyl-benzamide], the pIC50 in assay [1] and in assay [2] was > 7.30 throughout.
`CN(C)C(=O)c1ccc(NC(=O)Nc2ccc(-c3nc(N4CCOCC4)c4ncc(-c5cccnc5F)cc4n3)cc2)cc1` [Example 78, 4-(3-{4-[7-(2-fluoro-pyridin-3-yl)-4-morpholin-4-yl-pyrido[3,2-d]pyrimidin-2-yl]-phenyl}-ureido)-N,N-dimethyl-benzamide]: the pIC50 in assay [1] and in assay [2] was > 7.30 in each case.
For the compound `CN(C)C(=O)c1ccc(NC(=O)Nc2ccc(-c3nc(N4CCOCC4)c4cc(F)c(-c5cnn(C)c5)cc4n3)cc2F)cc1` [Example 108, 4-(3-(2-fluoro-4-(6-fluoro-7-(1-methyl-1H-pyrazol-4-yl)-4-morpholino-quinazolin-2-yl)phenyl)ureidodimethyl-benzamide)-N,N-dimethyl-benzamide], the pIC50 is > 7.30 in assay [1] and 6.70 to 7.30 in assay [2].
Turning to `CN(C)C(=O)c1ccc(NC(=O)Nc2ccc(-c3nc(N4CCOCC4)c4cc(F)c(-c5cccnc5)cc4n3)cc2F)cc1` [Example 109, 4-(3-(2-fluoro-4-(6-fluoro-4-morpholino-7-(pyridin-3-yl)quinazolin-2-yl)phenyl)ureido)-N,N-dimethyl-benzamide], the pIC50 in assay [1] and in assay [2] was 6.70 to 7.30 in each case.
Turning to `CN(C)C(=O)c1ccc(NC(=O)Nc2ccc(-c3nc(N4CCOCC4)c4ccc(-c5cnc(N)nc5)cc4n3)cc2F)cc1` [Example 110, 4-(3-(4-(7-(2-aminopyrimidin-5-yl)-4-morpholino-quinazolin-2-yl)-2-fluorophenyl)ureido)-N,N-dimethyl-benzamide], the pIC50 is > 7.30 in assay [1] and 5.00 to 6.70 in assay [2].
Take `CN(C)C(=O)c1ccc(NC(=O)Nc2ccc(-c3nc(N4CCOCC4)c4ccc(-c5ccco5)cc4n3)cc2F)cc1` [Example 114, 4-(3-(2-fluoro-4-(7-(furan-2-yl)-4-morpholino-quinazolin-2-yl)phenyl)ureido)-N,N-dimethyl-benzamide]: the pIC50 in assay [1] and in assay [2] was 6.70 to 7.30 each time.
With `COc1ncc(-c2ccc3c(N4CCOCC4)nc(-c4ccc(NC(=O)Nc5ccc(C(=O)N(C)C)cc5)nc4)nc3c2)cn1` [Example 119, 4-(3-(5-(7-(2-methoxypyrimidin-5-yl)-4-morpholino-quinazolin-2-yl)pyridin-2-yl)ureido)-N,N-dimethyl-benzamide], the pIC50 in assay [1] is 5.00 to 6.70; in assay [2] it was > 7.30.
With `Cc1ccc(-c2ccc3c(N4CCOCC4)nc(-c4ccc(NC(=O)Nc5ccc(C(=O)N(C)C)nc5)c(F)c4)nc3c2)o1` [Example 122, 5-(3-(2-fluoro-4-(7-(5-methylfuran-2-yl)-4-morpholino-quinazolin-2-yl)phenyl)ureido)-N,N-dimethylpicolinamide], the pIC50 in assay [1] and in assay [2] was 6.70 to 7.30 each time.
On to `CC1CN(c2nc(-c3ccc(NC(=O)Nc4ccc(C(=O)N(C)C)cc4)cc3)nc3cc(-c4cnn(C)c4)cnc23)CC(C)O1` (centres unmarked) [Example 125, 4-(3-(4-(4-(2,6-dimethylmorpholino)-7-(1-methyl-1H-pyrazol-4-yl)pyrido[3,2-d]pyrimidin-2-yl)phenyl)ureido)-N,N-dimethyl-benzamide], for which the pIC50 is 6.70 to 7.30 in assay [1] and 5.00 to 6.70 in assay [2].
For `CC1CN(c2nc(-c3ccc(NC(=O)Nc4ccc(C(=O)N(C)C)cc4)c(F)c3)nc3cc(-c4cnn(C)c4)cnc23)CC(C)O1` (centres unmarked) [Example 126, 4-(3-(4-(4-(2,6-dimethylmorpholino)-7-(1-methyl-1H-pyrazol-4-yl)pyrido[3,2-d]pyrimidin-2-yl)-2-fluorophenyl)ureido)-N,N-dimethyl-benzamide], in that order: 5.00 to 6.70 and 5.00 to 6.70.
